{"source": "patent US10532040B2", "about": "“Methods of treating cancer with herbacetin” (REGENTS OF THE UNIVERSITY OF MINNESOTA, priority 2011, dated 2020)", "key": {"JB6 epidermal cells": {"tested_on": "JB6 epidermal cells", "assay": "TPA-induced JB6 cell transformation", "type": "cell-based, mouse", "conditions": "2 weeks", "experimental": "(§1) FIGS. 3A-3H. Anticancer effect of herbacetin. (a) The effect of herbacetin on ODC activity in colon cancer cell lines was measured as the release of CO2 from L-[1-C^14] ornithine. […] (b) The effect of herbacetin and DFMO on the growth of colon cancer cells and (c) TPA-induced JB6 cell growth was compared. Cells were incubated for 72 h and growth was estimated using the MTS assay. (d) The effect of herbacetin on anchorage independent HCT116 colon cancer cell growth and (e) TPA-induced JB6 cell transformation was assessed. Cells were incubated for 2 weeks and then colonies were counted using a microscope and the Image-Pro PLUS (v.6) computer software program. The effect of herbacetin on AP-1 reporter activity in (f) HCT116 colon cancer cells and (g) TPA-induced AP-1 reporter activity in JB6 mouse epidermal cells was analyzed using the substrates included in the reporter assay system. Data are represented as means±S.D. of triplicate values from three independent experiments and the asterisk (*) indicates a significant (p<0.05) effect of herbacetin or DFMO compared to untreated or TPA-treated controls. (h) The effect of herbacetin on the phosphorylation of ERK1 and ERK2 in HCT116 colon cancer cells was determined by Western blotting. Similar results were observed from two independent experiments."}, "HCT116 cells": {"tested_on": "HCT116 cells", "assay": "HCT116 xenograft in athymic nude mice", "type": "in vivo, mouse", "experimental": "Athymic nude mice were inoculated in the right flank with HCT116 cells. Tumors were allowed to grow to an average of 40 mm^3 and then mice were divided into four equal groups with the same average tumor volume (FIG. 10). Treatment was initiated on Day 8 and continued to Day 20. […] No difference between treatment with 0.4 mg/kg B.W. herbacetin, 2 mg/kg B.W herbacetin or 200 mg/kg DFMO was observed."}, "[1]": {"tested_on": "activator protein-1, Cox2, NF-kappaB", "assay": "promoter activities (preliminary data)", "type": "cell-based"}, "[2]": {"molecular_target": "T1, ODC (WT, D44A, D243A, E384A) (Homo sapiens, UniProt P11926, D44A)", "T1 construct": "expressed in transfected cells; host or cells: HCT116 colon cancer cells", "T1 sequence (P11926 1-461 D44A)": "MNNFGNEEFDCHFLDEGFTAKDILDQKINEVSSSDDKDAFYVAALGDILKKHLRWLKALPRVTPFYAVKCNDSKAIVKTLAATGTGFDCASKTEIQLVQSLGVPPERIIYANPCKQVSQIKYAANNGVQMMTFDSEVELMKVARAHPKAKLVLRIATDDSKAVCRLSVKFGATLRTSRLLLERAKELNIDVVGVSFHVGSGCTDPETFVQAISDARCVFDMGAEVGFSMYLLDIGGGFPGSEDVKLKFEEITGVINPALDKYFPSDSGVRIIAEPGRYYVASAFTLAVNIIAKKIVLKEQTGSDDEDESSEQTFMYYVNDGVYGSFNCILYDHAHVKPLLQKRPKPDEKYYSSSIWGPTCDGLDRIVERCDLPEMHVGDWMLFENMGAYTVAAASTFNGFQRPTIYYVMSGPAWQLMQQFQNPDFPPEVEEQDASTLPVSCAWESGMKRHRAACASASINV", "assay": "pull-down assay with ectopically expressed ODC mutants in HCT116 cells", "type": "binding", "conditions": "D44A mutant compared with D243A, E384A and WT", "experimental": "A recombinant human ODC protein (200 ng) or total cell lysates (500 μg) to were incubated with herbacetin Sepharose 4B (or Sepharose 4B only as a control) beads (50 μl, 50% slurry) in reaction buffer (50 mM Tris pH 7.5, 5 mM EDTA, 150 mM NaCl, 1 mM DTT, 0.01% NP40, 2 μg/mL bovine serum albumin). After incubation with gentle rocking overnight at 4° C., the beads were washed 5 times with buffer (50 mM Tris pH 7.5, 5 mM EDTA, 150 mM NaCl, 1 mM DTT, 0.01% NP40) and binding was determined by Western blotting."}, "ERK1/2, p90^RSK": {"tested_on": "ERK1/2, p90^RSK", "assay": "Western blotting of ERK1/2 and p90RSK phosphorylation in HCT116 cells", "type": "cell-based", "experimental": "as §1, with “Data are represented as means±S.D. of triplicate values from three independent experiments and the asterisk (*) indicates a significant (p<0.05) effect of herbacetin or DFMO compared to untreated or TPA-treated controls.” left out, “Similar results were observed from two independent experiments.” left out\n(§2) We determined whether herbacetin affected the reporter activity of the MAP kinase target transcription factor, activator protein-1 (AP-1), in HCT116 cells or JB6 cells stimulated with TPA. […] AP-1 reporter activity was then measured (FIG. 3f, g) and the activity was attenuated by herbacetin in colon cancer cells and in TPA-activated JB6 cells. […]"}, "[3]": {"tested_on": "JB6 mouse epidermal skin cells", "assay": "proliferation and colony formation of JB6 mouse epidermal skin cells", "type": "cell-based", "conditions": "preliminary data", "experimental": "as §1"}, "[4]": {"tested_on": "HCT116 colon cancer cells", "assay": "cDNA microarray of HCT116 colon cancer cells", "type": "cell-based", "conditions": "HCT116, 1 or 2 days herbacetin", "experimental": "FIGS. 7A-7D. Profiling of gene expression in HCT116 colon cancer cells treated with herbacetin 1 or 2 days was assessed by microarray. […] (d) RT-PCR validation of differentially expressed genes.\nRNA samples from cells treated or not treated for 1 or 2 days with herbacetin were used. Data were analyzed using hierarchical clustering and the DAVID database as previously described (Sturn, A., Quackenbush, J. & Trajanoski, Z. Genesis: cluster analysis of microarray data. Bioinformatics 18, 207-208 (2002); Huang da, W., Sherman, B. T. & Lempicki, R. A. Systematic and integrative analysis of large gene lists using DAVID bioinformatics resources. Nat Protoc 4, 44-57 (2009))."}, "[5]": {"tested_on": "SKH-1 hairless mice, solar UV-induced skin tumors", "assay": "solar UV induced-skin tumor mouse model", "type": "in vivo", "conditions": "herbacetin 100 or 500 nmol topical for 7 weeks; relative to vehicle group", "experimental": "Mice were exposed to solar-UV (48 kJ/UVA, 2.9 kJ/UVB) 3 times weekly for 12 weeks. The solar UV treatment was discontinued and at twenty weeks later, mice were topically treated with 100 or 500 nmol of herbacetin (in acetone) for an additional 7 weeks. Mice (8-9 weeks old) were divided into three groups: 1) solar UV+vehicle group (n=4); 2) solar UV+100 nmol of herbacetin (n=4) group; 3) solar UV+500 nmol of herbacetin (n=4). The volume of tumors per mouse was recorded weekly."}, "[6]": {"tested_on": "activator protein-1 (AP-1)", "assay": "AP-1 reporter activity in HCT116 cells", "type": "cell-based", "conditions": "HCT116 cells treated 48 h", "experimental": "as §1, with “Data are represented as means±S.D. of triplicate values from three independent experiments and the asterisk (*) indicates a significant (p<0.05) effect of herbacetin or DFMO compared to untreated or TPA-treated controls.” left out, “Similar results were observed from two independent experiments.” left out\nas §2"}}, "data": [{"smiles": "O=c1c(O)c(-c2ccc(O)cc2)oc2c(O)c(O)cc(O)c12", "note": "[herbacetin, 3,5,7,8,4′-Pentahydroxyflavone]", "values": [{"measurement": "TPA-induced neoplastic transformation of JB6 epidermal cells", "setting": "JB6 epidermal cells", "value": "markedly suppressed"}, {"measurement": "potency as therapeutic agent relative to DFMO", "setting": "HCT116 cells; based on concentration", "value": "much more potent"}, {"measurement": "tumor volume, comparison between treated groups", "setting": "HCT116 cells; herbacetin 0.4 mg/kg, 2 mg/kg, DFMO 200 mg/kg", "value": "No difference"}, {"measurement": "tumor volume, treated groups vs vehicle-treated group", "setting": "HCT116 cells; herbacetin 0.4 or 2 mg/kg B.W., DFMO 200 mg/kg, Day 8 to Day 20", "value": "vehicle-treated group were significantly large in volume than any of the three treated groups"}, {"measurement": "promoter activities of activator protein-1, Cox2, NF-kappaB", "setting": "[1]", "value": "suppress promoter activities"}, {"measurement": "binding affinity of ODC mutant with herbacetin", "setting": "[2]", "value": "most reduced binding affinity"}, {"measurement": "phosphorylation of ERK1/2 and p90^RSK", "setting": "ERK1/2, p90^RSK", "value": "suppressed phosphorylation"}, {"measurement": "cell proliferation and anchorage independent colony formation", "setting": "[3]", "value": "decrease cell proliferation and anchorage independent colony formation"}, {"measurement": "gene expression", "setting": "[4]", "value": "significantly altered genes involved in proliferation, cell cycle, apoptosis and metabolic processes"}, {"measurement": "size (volume) of solar UV-induced skin tumors", "setting": "[5]", "value": "significantly decreased"}, {"measurement": "AP-1 reporter activity", "setting": "[6]", "value": "attenuated"}]}]}
